Key:
cisplatin-induced emesis = assay: cisplatin-induced retching and vomiting in the ferret; format: in vivo, ferret (Mustela putario furo); conditions: 5 mg/kg and 10 mg/kg i.p., 6 h observation
Description: The suitability of a compound of the invention to reduce retching and vomiting therapeutically is assessed in an accepted animal model of cytotoxin-induced emesis. Specifically, the experiments described herein are used to investigate the effect of a compound to reduce cisplatin-induced retching and/or vomiting in the ferret. Ondansetron is used as a positive control in the model, in view of its known antiemetic activity (Rudd and Naylor, Eur. J. Pharmacol., 322: 79-82 (1997)).
Adult male ferrets (Mustela putario furo) weighing 1200-1880g are purchased from Triple F Farns (Sayre, Pa.) and housed in individual cages at standardized conditions (12:12 h light/dark cycle and 21-23° C.). […]
Experiments are performed essentially as follows. […] Following administration of the cisplatin and either the test compound, ondansetron (control) or vehicle alone, the occurrence of retching and vomiting is monitored for a period of 6 hours. […] The latency of the retching or vomiting response and the number of episodes are recorded for each animal and are summarized for each experimental group (Wright et al., Infect. Immun., 68(4): 2386-9 (2000)). […]
Cisplatin is expected to induce an emetic response in 100% of the animals receiving vehicle alone. […] The mean latency of the first response post-cicplatin administration is also determined.

[1] = target: T1, 5-HT3 human recombinant receptors from HEK-293 cells (Homo sapiens, UniProt P46098); assay: 5-HT3 human recombinant binding assay ([3H]GR 65630)
T1 construct: expressed in transfected cells; host or cells: HEK-293
T1 sequence (P46098 24-478): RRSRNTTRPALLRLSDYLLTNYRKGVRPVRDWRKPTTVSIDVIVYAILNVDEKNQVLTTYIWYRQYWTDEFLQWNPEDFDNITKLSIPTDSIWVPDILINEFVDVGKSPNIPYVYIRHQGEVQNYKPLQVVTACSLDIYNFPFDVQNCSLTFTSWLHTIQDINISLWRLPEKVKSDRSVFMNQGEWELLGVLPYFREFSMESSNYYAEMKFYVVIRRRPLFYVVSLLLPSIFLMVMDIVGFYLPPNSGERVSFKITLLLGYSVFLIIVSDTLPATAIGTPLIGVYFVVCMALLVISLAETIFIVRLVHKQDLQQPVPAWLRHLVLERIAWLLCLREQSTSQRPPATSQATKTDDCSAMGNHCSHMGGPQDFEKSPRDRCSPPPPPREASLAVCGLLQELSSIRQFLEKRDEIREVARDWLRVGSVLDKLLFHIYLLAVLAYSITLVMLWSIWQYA
Description: (§1) The binding of MCI 225 QUAT to various receptors/transporters was compared to that of the non-quaternized parent compound, MCI-225. Binding assays were performed essentially according to procedures as follows.
The 5-HT3 human recombinant binding assay was performed essentially as described in Lummis et al. (1990) Eur. J. Pharmacol. 189:223-27; Hoyer et al. (1988) Mol. Pharmacol. 33:303; and Tyers et al. (1991) Therapie 46:431-435. Briefly, human recombinant receptors were from HEK-293 cells. Tritiated radioligand (GR 65630) was used. % specific binding was determined as a function of log [compound]. MDL 72222 (1 alpha H, 3 alpha, 5 alpha H-tropan-3-yl-3,5-dichlorobenzoate) was used as nonspecific determinant, reference compound and positive control.

[2] = target: T2, norepinephrine transporter (NET), human recombinant from CHO cells (Homo sapiens, UniProt P23975); assay: norepinephrine transporter (NET) binding assay ([3H]nisoxetine)
T2 construct: expressed in transfected cells; host or cells: CHO
Description: as §1
The norepinephrine transporter (NET) assay was performed essentially as described in Raisman et al. (1982) Eur. J. Pharmacol. 78:345-351 (minor modifications); and Raisman and Briley (1981) Eur. J. Pharmacol. 72:423. Briefly, human recombinant receptors were from CHO cells. Tritiated radioligand (nisoxetine) was used. % specific binding was determined as a function of log [compound]. Desipramine (DMI) was used as nonspecific determinant, reference compound and positive control.

[3] = target: T3, serotonin transporter (SERT), human platelet membranes (Homo sapiens, UniProt P31645); assay: serotonin transporter (SERT) binding assay ([3H]N-methyl citalopram)
T3 construct: Briefly, human recombinant receptors were from human platelet membranes; from tissue; host or cells: human platelet membranes
Description: Binding assays were performed essentially according to procedures as follows.
The serotonin transporter (SERT) assay was performed essentially as described in D'Armato et al. (1987) J. Pharmacol. & Exp. Ther. 242:364-371 (with modification); and Brown et al. (1986) Eur. J. Pharmacol. 123:161-165. Briefly, human recombinant receptors were from human platelet membranes. Tritiated radioligand (N-methyl citalopram) was used. % specific binding was determined as a function of log [compound]. Imipramine was used as nonspecific determinant, reference compound and positive control.

T2 sequence (P23975 whole entry): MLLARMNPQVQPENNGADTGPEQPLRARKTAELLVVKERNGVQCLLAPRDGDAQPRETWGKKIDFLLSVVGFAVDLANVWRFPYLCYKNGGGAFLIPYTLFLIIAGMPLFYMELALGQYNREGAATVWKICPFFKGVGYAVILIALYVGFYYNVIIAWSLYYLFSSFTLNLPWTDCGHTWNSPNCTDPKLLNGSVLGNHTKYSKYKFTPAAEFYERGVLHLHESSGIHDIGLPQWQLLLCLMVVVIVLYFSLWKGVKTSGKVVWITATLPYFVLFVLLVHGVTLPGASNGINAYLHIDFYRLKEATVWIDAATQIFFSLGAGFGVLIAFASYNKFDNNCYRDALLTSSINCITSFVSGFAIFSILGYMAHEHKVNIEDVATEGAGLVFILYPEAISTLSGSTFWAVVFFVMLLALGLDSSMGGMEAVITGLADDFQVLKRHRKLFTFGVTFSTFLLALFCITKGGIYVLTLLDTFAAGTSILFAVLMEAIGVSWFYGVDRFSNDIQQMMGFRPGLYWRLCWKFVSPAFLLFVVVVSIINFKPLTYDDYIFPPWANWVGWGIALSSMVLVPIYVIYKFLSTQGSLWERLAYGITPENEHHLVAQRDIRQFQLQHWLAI
T3 sequence (P31645 whole entry): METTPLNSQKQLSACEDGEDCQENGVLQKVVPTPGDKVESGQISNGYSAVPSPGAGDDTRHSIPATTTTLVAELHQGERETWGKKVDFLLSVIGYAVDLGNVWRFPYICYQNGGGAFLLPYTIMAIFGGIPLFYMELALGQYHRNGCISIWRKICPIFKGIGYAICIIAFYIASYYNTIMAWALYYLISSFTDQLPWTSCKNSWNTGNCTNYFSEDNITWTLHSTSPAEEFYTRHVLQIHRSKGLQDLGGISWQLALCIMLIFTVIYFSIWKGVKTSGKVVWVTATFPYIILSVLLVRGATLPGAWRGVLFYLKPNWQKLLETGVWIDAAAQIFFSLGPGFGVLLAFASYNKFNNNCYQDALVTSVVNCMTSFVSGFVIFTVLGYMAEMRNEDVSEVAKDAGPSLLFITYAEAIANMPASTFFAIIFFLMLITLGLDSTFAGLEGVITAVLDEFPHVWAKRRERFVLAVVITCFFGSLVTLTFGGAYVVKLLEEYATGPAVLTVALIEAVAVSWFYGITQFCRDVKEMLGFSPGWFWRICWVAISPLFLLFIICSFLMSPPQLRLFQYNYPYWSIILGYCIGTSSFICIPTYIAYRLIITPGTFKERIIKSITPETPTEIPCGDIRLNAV

| 5-HT3 (hr) % specific binding ([1]; Conc. 1.00E−06) | 5-HT3 (hr) % specific binding ([1]; Conc. 1.00E−08) | 5-HT3 (hr) % specific binding ([1]; Conc. 1.00E−10) | NET (hr) % specific binding ([2]; Conc. 1.00E−06) | NET (hr) % specific binding ([2]; Conc. 1.00E−08) | NET (hr) % specific binding ([2]; Conc. 1.00E−10) | SERT (h) % specific binding ([3]; Conc. 1.00E−06) | SERT (h) % specific binding ([3]; Conc. 1.00E−08) | SERT (h) % specific binding ([3]; Conc. 1.00E−10) | Structure (SMILES) | latency of the first emetic response induced by cisplatin (cisplatin-induced emesis) | number of emetic events induced by cisplatin (cisplatin-induced emesis) |
| --- | --- | --- | --- | --- | --- | --- | --- | --- | --- | --- | --- |
|  |  |  |  |  |  |  |  |  | Cc1nccn1CC1CCc2c(c3ccccc3n2C)C1=O (centres unmarked) [Ondansetron, ondansetron] | increase the latency | reduce the number of emetic events |
| 100% | 22% | 0% | 104% | 72% | 17% | 94% | 10% | 1% | Cc1cc2c(-c3ccccc3F)nc(N3CCNCC3)nc2s1 [compound 225, 4-(2-fluoro-phenyl)-6-methyl-2-piperazin-1-yl-thieno[2,3-d]pyrimidine] |  |  |

From patent publication US20060293309A1, “Method of treating disorders and conditions using peripherally-restricted antagonists and inhibitors” (Dynogen Pharmaceuticals, Inc., priority 2005, published 2006)
